Assay results from the NIST ThermoML archive (doi:10.1016/j.jct.2012.09.013).
± gives the expanded uncertainty stated by the source.

How the values were obtained:
[1] = 101.33 kPa, Liquid; for viscosity: Capillary tube (Ostwald / Ubbelohde) method; for speed of sound: Linear variable-path acoustic interferometer; for mass density: Pycnometric method
[2] = mn = molality of the nth substance listed, in mol/kg; conditions: 101 kPa, Liquid, m2 = 0; for viscosity: Capillary tube (Ostwald / Ubbelohde) method; for speed of sound: Linear variable-path acoustic interferometer; for mass density: Pycnometric method

| SMILES | viscosity ([1]; 303 K) | speed of sound ([1]; 303 K) | mass density ([1]; 303 K) | viscosity ([1]; 308 K) | speed of sound ([1]; 308 K) | mass density ([1]; 308 K) | viscosity ([1]; 313 K) | speed of sound ([1]; 313 K) | mass density ([1]; 313 K) | viscosity ([2]; 303 K) | speed of sound ([2]; 303 K) | mass density ([2]; 303 K) | viscosity ([2]; 308 K) | speed of sound ([2]; 308 K) | mass density ([2]; 308 K) | viscosity ([2]; 313 K) | speed of sound ([2]; 313 K) | mass density ([2]; 313 K) |
| --- | --- | --- | --- | --- | --- | --- | --- | --- | --- | --- | --- | --- | --- | --- | --- | --- | --- | --- |
| CN(C)C=O [dimethylformamide] | 0.7588 ± 0.15 mPa·s | 1442 ± 6 m/s | 941.7 ± 0.7 kg/m3 | 0.7056 ± 0.14 mPa·s | 1432 ± 5.9 m/s | 937.2 ± 0.7 kg/m3 | 0.6353 ± 0.13 mPa·s | 1402 ± 5.8 m/s | 933.6 ± 0.6 kg/m3 |  |  |  |  |  |  |  |  |  |
| CN(C)C=O [dimethylformamide] + CC(=O)N1N=C(CSc2nc3ccccc3c(=O)n2-c2ccccc2C)OC1(C)c1ccc(C)cc1 |  |  |  |  |  |  |  |  |  | 0.7588 ± 0.15 mPa·s | 1442 ± 6 m/s | 941.7 ± 0.7 kg/m3 | 0.7056 ± 0.14 mPa·s | 1432 ± 5.9 m/s | 937.2 ± 0.7 kg/m3 | 0.6353 ± 0.13 mPa·s | 1402 ± 5.8 m/s | 933.6 ± 0.6 kg/m3 |
| CN(C)C=O [dimethylformamide] + COc1ccc(C2(C)OC(CSc3nc4ccccc4c(=O)n3-c3ccccc3C)=NN2C(C)=O)cc1 |  |  |  |  |  |  |  |  |  | 0.7588 ± 0.15 mPa·s | 1442 ± 6 m/s | 941.7 ± 0.7 kg/m3 | 0.7056 ± 0.14 mPa·s | 1432 ± 5.9 m/s | 937.2 ± 0.7 kg/m3 | 0.6353 ± 0.13 mPa·s | 1402 ± 5.8 m/s | 933.6 ± 0.6 kg/m3 |
| ClC(Cl)Cl [trichloromethane] | 0.6628 ± 0.13 mPa·s | 960 ± 4 m/s | 1475.3 ± 20 kg/m3 | 0.6279 ± 0.13 mPa·s | 950.8 ± 4 m/s | 1470.8 ± 20 kg/m3 | 0.5781 ± 0.12 mPa·s | 932.4 ± 3.9 m/s | 1465.8 ± 20 kg/m3 |  |  |  |  |  |  |  |  |  |
| ClC(Cl)Cl [trichloromethane] + CC(=O)N1N=C(CSc2nc3ccccc3c(=O)n2-c2ccccc2C)OC1(C)c1ccc(C)cc1 |  |  |  |  |  |  |  |  |  | 0.6628 ± 0.13 mPa·s | 960 ± 4 m/s | 1475.3 ± 20 kg/m3 | 0.6279 ± 0.13 mPa·s | 950.8 ± 4 m/s | 1470.8 ± 20 kg/m3 | 0.5781 ± 0.12 mPa·s | 932.4 ± 3.9 m/s | 1465.8 ± 20 kg/m3 |
| ClC(Cl)Cl [trichloromethane] + COc1ccc(C2(C)OC(CSc3nc4ccccc4c(=O)n3-c3ccccc3C)=NN2C(C)=O)cc1 |  |  |  |  |  |  |  |  |  | 0.6628 ± 0.13 mPa·s | 960 ± 4 m/s | 1475.3 ± 20 kg/m3 | 0.6279 ± 0.13 mPa·s | 950.8 ± 4 m/s | 1470.8 ± 20 kg/m3 | 0.5781 ± 0.12 mPa·s | 932.4 ± 3.9 m/s | 1465.8 ± 20 kg/m3 |
